Reference: patent US6989371B1, “Bombesin analogs for treatment of cancer” (Dabur Research Foundation, priority 1996, dated 2006)
Non-standard residues stand in square brackets, D forms with d. Residues, ends and D or L forms follow the SMILES beside them. Aib = CC(C)(N)C(=O)O

Columns and labels:
Experiment in all cases: MTT cytotoxicity assay, 72 hours (Example 13)
Assay type in all cases: cell-based, human
MOLT-4 (leukemia) = system: MOLT-4 (leukemia)
Protocol: (§1) The cytotoxic activity of other synthesized bombesin analogs was tested on eight human tumor cell lines namely HT-29, SW620, PTC (all colon), PA-1 (ovary), A549 (lung), HBL100(breast), MOLT-4 (leukemia) and DU145 (prostate). The tumor cells were collected at exponential growth phase and resuspended in medium (1.5×10^6) cells/ml in RPMI 1640 containing 10% FBS). 150 μl of medium was added to the wells of a 96-well tissue culture plate (Nunc, Denmark) followed by 30 μl of cell suspension. The plate was left in incubator (37° C., 5% CO2 overnight. 20 μl of the peptide (10^−7×10^×10M concentration) was added to marked wells of the 96-well plate. Each concentration was plated in cells served as blanks. A total volume of 200 μl was ensured in each well and plate was left in incubator (37° C., 5% CO2). After 72 hours of incubation an MTT assay was performed and percentage cytotoxicity was calculated with respect to control cells. Following tables show the cytotoxicity achieved on various cell lines at different concentrations.

SW620 (colon) = system: SW620 (colon)
Protocol: as §1

PA-1 (ovary) = system: PA-1 (ovary)
Protocol: as §1

PTC (colon) = system: PTC (colon)
Protocol: as §1

HBL100 (breast) = conditions: HBL
Protocol: as §1

A549 (lung) = system: A549 (lung)
Protocol: as §1

HT-29 (colon) = system: HT-29 (colon)
Protocol: as §1

DU145 (prostate) = system: DU145 (prostate)
Protocol: as §1

Row | SMILES | Percent Cytotoxicity (MOLT-4 (leukemia); MOLT4, 1 nM) [%] | Percent Cytotoxicity (MOLT-4 (leukemia); MOLT4, 10 nM) [%] | Percent Cytotoxicity (MOLT-4 (leukemia); MOLT4, 100 nM) | Percent Cytotoxicity (MOLT-4 (leukemia); MOLT4, 100 PM) [%] | Percent Cytotoxicity (SW620 (colon); SW620, 1 nM) [%] | Percent Cytotoxicity (SW620 (colon); SW620, 10 nM) [%] | Percent Cytotoxicity (SW620 (colon); SW620, 100 nM) [%] | Percent Cytotoxicity (SW620 (colon); SW620, 100 PM) [%] | Percent Cytotoxicity (PA-1 (ovary); PA-1, 1 nM) [%] | Percent Cytotoxicity (PA-1 (ovary); PA-1, 10 nM) [%] | Percent Cytotoxicity (PA-1 (ovary); PA-1, 100 nM) [%] | Percent Cytotoxicity (PA-1 (ovary); PA-1, 100 PM) [%] | Percent Cytotoxicity (PTC (colon); 1 nM) [%] | Percent Cytotoxicity (PTC (colon); 10 nM) [%] | Percent Cytotoxicity (PTC (colon); 100 nM) [%] | Percent Cytotoxicity (PTC (colon); 100 PM) [%] | Percent Cytotoxicity (HBL100 (breast); 1 nM) [%] | Percent Cytotoxicity (HBL100 (breast); 10 nM) [%] | Percent Cytotoxicity (HBL100 (breast); 100 nM) [%] | Percent Cytotoxicity (HBL100 (breast); 100 PM) | other results
1 | CC(C)C[C@H](NC(=O)[C@H](Cc1c[nH]cn1)NC(=O)CNC(=O)[C@@H](NC(=O)C(C)(C)NC(=O)[C@H](Cc1c[nH]c2ccccc12)NC(=O)[C@H](CCC(N)=O)NC(=O)[C@H](N)Cc1ccccc1)C(C)C)C(N)=O [SEQ ID: 4, D-Phe-Gln-Trp-Aib-Val-Gly-His-Leu-NH2] (H-[dF]QW[Aib]VGHL-NH2; N-terminus assumed) | 19.3 ± 1.8 | 28.7 ± 4.2 | 16.2 ± 0.6% | 28.5 ± 4.8 | 27.8 ± 2.8 | 23.2 ± 2.0 | 34.3 ± 4.2 | 30.4 ± 3.2 | 16.2 ± 2.9 | 4.3 ± 0.2 | 2.3 ± 2.9 | 12.6 ± 2.9 | 8.7 ± 1.5 | 2.1 ± 0.2 | 9.8 ± 1.7 | 14.9 ± 1.1 | 30.6 ± 4.2 | 33.2 ± 5.2 | 25.0 ± 3.1 | 33.0 ± 3.6% | Percent Cytotoxicity (A549 (lung); A549, 1 nM): 22.7 ± 2.9%; Percent Cytotoxicity (A549 (lung); A549, 10 nM): 20.6 ± 1.9%; Percent Cytotoxicity (A549 (lung); A549, 100 nM): 20.0 ± 2.2%; Percent Cytotoxicity (A549 (lung); A549, 100 PM): 20.7 ± 4.2%; Percent Cytotoxicity (HT-29 (colon); HT29, 1 nM): 39.6 ± 4.3%; Percent Cytotoxicity (HT-29 (colon); HT29, 10 nM): 38.9 ± 7.3%; Percent Cytotoxicity (HT-29 (colon); HT29, 100 nM): 38.6 ± 5.3%; Percent Cytotoxicity (HT-29 (colon); HT29, 100 PM): 43.3 ± 4.4%; Percent Cytotoxicity (DU145 (prostate); DU145, 1 nM): 22.8 ± 4.1%; Percent Cytotoxicity (DU145 (prostate); DU145, 10 nM): 23.4 ± 3.3%; Percent Cytotoxicity (DU145 (prostate); DU145, 100 nM): 24.9 ± 3.2%; Percent Cytotoxicity (DU145 (prostate); DU145, 100 PM): 23.2 ± 3.7%
2 | CC(C)C[C@H](NC(=O)[C@H](Cc1c[nH]cn1)NC(=O)C(C)(C)NC(=O)[C@@H](NC(=O)[C@H](C)NC(=O)[C@@H](Cc1c[nH]c2ccccc12)NC(=O)[C@H](CCC(N)=O)NC(=O)[C@H](N)Cc1ccccc1)C(C)C)C(N)=O [SEQ ID: 5, D-Phe-Gln-D-Trp-Ala-Val-Aib-His-Leu-NH2] (H-[dF]Q[dW]AV[Aib]HL-NH2; N-terminus assumed) | 6.4 ± 0.2 | 4.3 ± 0.6 | NIL | 8.7 ± 0.6 | 29.7 ± 4.2 | 30.1 ± 4.0 | 25.6 ± 4.2 | 38.0 ± 3.8 | 16.0 ± 3.9 | 20.9 ± 5.3 | 8.8 ± 1.9 | 25.6 ± 6.3 | 23.0 ± 4.2 | 15.9 ± 2.4 | 20.4 ± 4.2 | 13.9 ± 2.2 | 31.6 ± 5.3 | 16.7 ± 3.6 | 19.4 ± 4.5 | 19.3 ± 2.7% | Percent Cytotoxicity (A549 (lung); A549, 1 nM): 20.2 ± 4.2%; Percent Cytotoxicity (A549 (lung); A549, 10 nM): 22.2 ± 3.1%; Percent Cytotoxicity (A549 (lung); A549, 100 nM): 30.3 ± 4.3%; Percent Cytotoxicity (A549 (lung); A549, 100 PM): 25.2 ± 5.6%; Percent Cytotoxicity (HT-29 (colon); HT29, 1 nM): 27.9 ± 2.9%; Percent Cytotoxicity (HT-29 (colon); HT29, 10 nM): 44.4 ± 4.0%; Percent Cytotoxicity (HT-29 (colon); HT29, 100 nM): 35.7 ± 2.8%; Percent Cytotoxicity (HT-29 (colon); HT29, 100 PM): 42.0 ± 2.0%; Percent Cytotoxicity (DU145 (prostate); DU145, 1 nM): 10.6 ± 0.9%; Percent Cytotoxicity (DU145 (prostate); DU145, 10 nM): 22.0 ± 3.4%; Percent Cytotoxicity (DU145 (prostate); DU145, 100 nM): 32.3 ± 3.8%; Percent Cytotoxicity (DU145 (prostate); DU145, 100 PM): 29.3 ± 2.9%
3 | CC[C@H](C)[C@H](NC(=O)[C@H](Cc1c[nH]cn1)NC(=O)CNC(=O)[C@@H](NC(=O)C(C)(C)NC(=O)[C@H](Cc1c[nH]c2ccccc12)NC(=O)[C@H](CCC(N)=O)NC(=O)[C@H](N)Cc1ccccc1)C(C)C)C(N)=O [SEQ ID: 6, D-Phe-Gln-Trp-Aib-Val-Gly-His-Ile-NH2] (H-[dF]QW[Aib]VGHI-NH2; N-terminus assumed) | 0.8 ± 0.1 | 20.4 ± 4.3 | NIL | 11.0 ± 0.6 | 33.5 ± 5.2 | 38.1 ± 7.3 | 23.5 ± 5.1 | 24.8 ± 4.2 | 7.4 ± 1.0 | 8.7 ± 1.9 | 9.2 ± 1.0 | 11.1 ± 2.9 | 9.1 ± 0.7 | 10.4 ± 0.8 | 24.7 ± 5.2 | 10.1 ± 0.6 | 1.2 ± 0.3 | 6.0 ± 0.4 | 17.0 ± 0.5 | NIL | Percent Cytotoxicity (A549 (lung); A549, 1 nM): 13.0 ± 0.8%; Percent Cytotoxicity (A549 (lung); A549, 10 nM): 3.2 ± 0.1%; Percent Cytotoxicity (A549 (lung); A549, 100 nM): 1.9 ± 0.6%; Percent Cytotoxicity (A549 (lung); A549, 100 PM): 12.4 ± 0.7%; Percent Cytotoxicity (HT-29 (colon); HT29, 1 nM): 26.7 ± 4.2%; Percent Cytotoxicity (HT-29 (colon); HT29, 10 nM): 6.8 ± 0.7%; Percent Cytotoxicity (HT-29 (colon); HT29, 100 nM): NIL; Percent Cytotoxicity (HT-29 (colon); HT29, 100 PM): 16.8 ± 0.5%; Percent Cytotoxicity (DU145 (prostate); DU145, 1 nM): 3.9 ± 5.2%; Percent Cytotoxicity (DU145 (prostate); DU145, 10 nM): 16.6%; Percent Cytotoxicity (DU145 (prostate); DU145, 100 nM): 13.7 ± 0.9%; Percent Cytotoxicity (DU145 (prostate); DU145, 100 PM): 12.1 ± 0.8%
